Test results as given in patent US4892887A, “N,N'-bis(sulfonyl)hydrazines having antineoplastic activity” (Yale University, priority 1988, dated 1990).
“Also recorded” adds a separate entry of the source. Where two headings read alike, the source gives them in different places.

Columns and labels:
L1210 leukemia = assay: Survival time of mice bearing the L1210 leukemia; assay type: in vivo, mouse (CDF-1 mice); conditions: for Av. Change wt. %: L1210 mice; for response vs control in vivo at 50 mg/kg / response vs control in vivo at 100 mg/kg / response vs control in vivo at 150 mg/kg: Mus musculus, read-out: % T/C; for activity against the L1210 leukemia (in words): mouse, in vivo; for Max. % T/C L1210 Leukemia: Table V
Source text: The ascites cell forms of the L1210 leukemia, Sarcoma 180 and P388 leukemia were propagated in CDF-1 mice. […] Mice were weighed during the course of the experiments, and the percentage change in body weight from the onset to termination of therapy was used as an indication of host toxicity.
Each value represents the average of 5 animals per group.

B16 melanoma = assay: Survival time of mice bearing the B16 melanoma; assay type: in vivo, mouse (C57B1 mice); conditions: for Max. % T/C: Table IV, B16, at optimum effective daily dose; for Av. Change in wt., %: at optimum effective daily dose, B16 mice; for Max. % T/C B16 Melanoma: Table V
Protocol: This tumor was propagated in C57B1mice. Transplantation was carried out by removing tumors from donor mice bearing 14-day subcutaneous tumor growths. The tissue was fragmented to make a well-dispersed cellular suspension and diluted with Fischer's medium without serum so that one gram of tissue was suspended in 5 ml of solution. A portion (0.2 ml) of the resulting cell suspension was injected intraperitoneally into each recipient animal. All compounds were administered over a wide range of dosage levels by intraperitoneal injection, beginning 24 hours after tumor implantation, once daily for 6 consecutive days. The test compounds were injected as fine suspensions following homogenization in 2 to 3 drops of 20% aqueous Tween 80 and then made up to volume with isotonic saline. […] Mice were weighed during the course of the experiments, and the percent change in body weight from onset to termination of therapy was used as an indication of drug toxicity. Determination of the sensitivity of neoplasms to these agents was based on the prolongation of survival time afforded by the drug treatments.
^a Administered once daily for six consecutive days, beginnign 24
hours after tumor transplanation, with 5 animals being used per group.
^b Average change in body weight from onset to termination of therapy
^c % T/C = average survival time of treated/control animals ×
100. Each value represents the average of 5 animals per group.

[1] = 50 mg/kg once daily for six days
[2] = 100 mg/kg once daily for six days
[3] = 150 mg/kg once daily for six days
[4] = 144 h, 50 mg/kg once daily for six days, L1210
[5] = 144 h, 100 mg/kg once daily for six days, L1210

SMILES	Max. % T/C L1210 Leukemia (L1210 leukemia) [% T/C]	Max. % T/C B16 Melanoma (B16 melanoma) [% T/C]	also measured
Cc1ccc(S(=O)(=O)N(C)NS(=O)(=O)Cc2ccccc2)cc1 [Compound 6, N'-benzylsulfonyl-N-methyl-N-(p-toluenesulfonyl)hydrazine]	–	–	Average Survival Time of Treated Animals, days ± SE (L1210 leukemia; [1]): 16.0 ± 3.4 days; Av. Change wt. % (L1210 leukemia; [1]): +10.8%; Average Survival Time of Treated Animals, days ± SE (L1210 leukemia; [2]): 12.6 ± 0.8 days; Av. Change wt. % (L1210 leukemia; [2]): +2.4%; Average Survival Time of Treated Animals, days ± SE (L1210 leukemia; [3]): 14.6 ± 1.9 days; Av. Change wt. % (L1210 leukemia; [3]): -4.3%; response vs control in vivo at 50 mg/kg (L1210 leukemia; [4]): 174%; response vs control in vivo at 100 mg/kg (L1210 leukemia; [5]): 137%; response vs control in vivo at 150 mg/kg (L1210 leukemia; 144 h, 150 mg/kg once daily for six days, L1210): 159%; activity against the L1210 leukemia (in words) (L1210 leukemia): comparable to that of compounds 1-3 and 5; also recorded: relatively high level of activity; increase in survival time of mice bearing the L1210 leukemia (L1210 leukemia; optimal daily dosage level): 74%; Max. % T/C (B16 melanoma): 172 % T/C; Av. Change in wt., % (B16 melanoma): -2.4%
CN(NS(=O)(=O)c1ccc2ccccc2c1)S(=O)(=O)c1ccc2ccccc2c1 [Compound 11, Nmethyl-N,N'bis(2-naphthalenesulfonyl)hydrazine]	–	–	Average Survival Time of Treated Animals, days ± SE (L1210 leukemia; [1]): 11.4 ± 1.1 days; Av. Change wt. % (L1210 leukemia; [1]): +6.9%; Average Survival Time of Treated Animals, days ± SE (L1210 leukemia; [2]): 10.2 ± 0.4 days; Av. Change wt. % (L1210 leukemia; [2]): +3.0%; Average Survival Time of Treated Animals, days ± SE (L1210 leukemia; [3]): 14.0 ± 2.3 days; Av. Change wt. % (L1210 leukemia; [3]): -3.3%; response vs control in vivo at 50 mg/kg (L1210 leukemia; [4]): 127%; response vs control in vivo at 100 mg/kg (L1210 leukemia; [5]): 113%; response vs control in vivo at 150 mg/kg (L1210 leukemia; L1210, 144 h): 156%; Max. % T/C (B16 melanoma): 164 % T/C; Av. Change in wt., % (B16 melanoma): +4.6%
Cc1ccc(S(=O)(=O)NN(C)S(=O)(=O)c2ccccc2)cc1 [Compound 14]	153	178	–
COc1ccc(S(=O)(=O)NN(C)S(=O)(=O)c2ccccc2)cc1 [Compound 15]	136	191	–
CN(NS(=O)(=O)c1ccc(Cl)cc1)S(=O)(=O)c1ccccc1 [Compound 16]	122	148	–
CN(NS(=O)(=O)c1ccc2ccccc2c1)S(=O)(=O)c1ccccc1 [Compound 18]	–	181	–
CN(NS(=O)(=O)c1ccc(Br)cc1)S(=O)(=O)c1ccccc1 [Compound 19]	–	187	–
Cc1ccc(S(=O)(=O)N(C)NS(=O)(=O)c2ccc(Br)cc2)cc1 [Compound 20, N'-(p-bromobenzenesulfonyl)-N-methyl-N-(p-toluenesulfonyl)hydrazine]	169	161	–
Cc1ccc(S(=O)(=O)N(C)NS(=O)(=O)c2ccc3ccccc3c2)cc1 [Compound 21, N'-(2-naphthalenesulfonyl)-N-methyl-N-(p-toluenesulfonyl)hydrazine]	134	–	–
Cc1ccc(S(=O)(=O)N(C)NS(=O)(=O)c2ccc([N+](=O)[O-])cc2)cc1 [Compound 22]	–	192	–
COc1ccc(S(=O)(=O)N(C)NS(=O)(=O)c2ccccc2)cc1 [Compound 23]	178	151	–
COc1ccc(S(=O)(=O)N(C)NS(=O)(=O)c2ccc(Cl)cc2)cc1 [Compound 24, N'-(p-chlorobenzenesulfonyl)-N-(p-methoxybenzene-sulfonyl)-N-methylhydrazine]	–	170	–
COc1ccc(S(=O)(=O)N(C)NS(=O)(=O)c2ccc(Br)cc2)cc1 [Compound 25]	134	205	–
COc1ccc(S(=O)(=O)N(C)NS(=O)(=O)c2ccc3ccccc3c2)cc1 [Compound 27]	–	163	–
COc1ccc(S(=O)(=O)N(C)NS(=O)(=O)Cc2ccccc2)cc1 [Compound 28]	152	160	–
COc1ccc(S(=O)(=O)N(C)NS(C)(=O)=O)cc1 [Compound 29]	274	204	activity against the L1210 leukemia (in words) (L1210 leukemia): highest increases in survival time
CN(NS(=O)(=O)c1ccccc1)S(=O)(=O)c1ccc(Cl)cc1 [Compound 31, N'-benzenesulfonyl-N-(p-chlorobenzenesulfonyl)-N-methylhydrazine]	111	146	–
COc1ccc(S(=O)(=O)NN(C)S(=O)(=O)c2ccc(Cl)cc2)cc1 [Compound 32, N-(p-chlorobenzenesulfonyl)-N'-(p-methoxybenzenesulfonyl)-N-methylhydrazine]	130	153	–

SMILES	Max. % T/C L1210 Leukemia (L1210 leukemia) [% T/C]	Max. % T/C B16 Melanoma (B16 melanoma) [% T/C]	also measured
CN(NS(=O)(=O)C=Cc1ccccc1)S(=O)(=O)c1ccc(Cl)cc1 [Compound 34]	–	143	–
CCS(=O)(=O)NN(C)S(=O)(=O)c1ccc(Cl)cc1 [Compound 36]	–	164	–
CN(NS(=O)(=O)c1ccccc1)S(=O)(=O)c1ccc(Br)cc1 [Compound 37, N'-benzenesulfonyl-N-(p-bromobenzenesulfonyl)-N-methylhydrazine]	–	160	–
Cc1ccc(S(=O)(=O)NN(C)S(=O)(=O)c2ccc(Br)cc2)cc1 [Compound 38, N-(p-bromobenzenesulfonyl)-N-methyl-N'-(p-toluenesulfonyl)hydrazine]	127	–	–
CN(NS(=O)(=O)c1ccc(Cl)cc1)S(=O)(=O)c1ccc(Br)cc1 [Compound 40, N-(p-bromobenzenesulfonyl)-N'-(p-chlorobenzenesulfonyl)-N-methylhydrazine]	–	145	–
CN(NS(=O)(=O)c1ccc2ccccc2c1)S(=O)(=O)c1ccc(Br)cc1 [Compound 42, N-(p-bromobenzenesulfonyl)-N-methyl-N-(2-naphthalenesulfonyl)hydrazine]	–	146	–
CN(NS(=O)(=O)C=Cc1ccccc1)S(=O)(=O)c1ccc(Br)cc1 [Compound 43, N-(p-bromobenzenesulfonyl)-N-methyl-N'-(2-styrenesulfonyl)hydrazine]	–	178	–
CN(NS(C)(=O)=O)S(=O)(=O)c1ccc(Br)cc1 [Compound 44]	–	221	–
Cc1ccc(S(=O)(=O)NN(C)S(=O)(=O)c2ccc3ccccc3c2)cc1 [Compound 46, N-(N'-naphthalenesulfonyl)-N-methyl-N'-(p-toluenesulronyl)hydrazine]	120	–	–
COc1ccc(S(=O)(=O)NN(C)S(=O)(=O)Cc2ccccc2)cc1 [Compound 51]	–	182	–
CN(NS(=O)(=O)c1ccc(Br)cc1)S(=O)(=O)Cc1ccccc1 [Compound 53]	–	163	–
CN(NS(=O)(=O)c1ccc2ccccc2c1)S(=O)(=O)Cc1ccccc1 [Compound 54]	115	–	–
CN(NS(=O)(=O)Cc1ccccc1)S(=O)(=O)Cc1ccccc1 [Compound 55, N,N'-bis(benzylsulfonyl)-N-methylhydrazine]	–	152	–
CN(NS(C)(=O)=O)S(=O)(=O)Cc1ccccc1 [Compound 56]	–	203	–
CN(NS(=O)(=O)C=Cc1ccccc1)S(=O)(=O)C=Cc1ccccc1 [Compound 57]	–	171	–
CC(=O)Nc1ccc(S(=O)(=O)N(C)NS(=O)(=O)c2ccc(Br)cc2)cc1 [Compound 58]	–	164	–
CN(NS(C)(=O)=O)S(=O)(=O)c1ccc(I)cc1 [Compound 62]	–	195	–
